Experiments:
[1] = test system: vascular endothelial growth factor (VEGF); assay: Ex.4 therapeutic HIE rat model: VEGF staining; type: in vivo
Experimental: The sections were heated in 10 mmol/L citrate buffer (pH 6.0) at 100° C. for 10 minutes. Endogenous peroxidase activity was blocked with 3% hydrogen peroxide for 10 minutes and after a second blocking with 5% normal goat serum, the sections were incubated with anti-doublecortin (DCX) antibody, diluted 1:1000 (rabbit polyclonal antibody; Abcam, Cambridge, UK) and anti-vascular endothelial growth factor (VEGF) antibody, diluted 1:100 (mouse monoclonal antibody; Abcam, Cambridge, UK) overnight at 4° C. After rinsing, Alexa Fluor® goat anti-rabbit, diluted 1:1000 and Alexa Fluor® goat anti-mouse, diluted 1:1000 (Invitrogen Inc., Ghent, Belgium) were added and sections were incubated 1 h at room temperature. Mounting medium containing 4′,6-diamidino-2-phenylindole (DAPI) for fluorescent studies was used (Vector Laboratories). Samples were analyzed with the aid of a microscope (Olympus Vanox AHBT3, Olympus), and the ImageJ software (NIH). The percentage of positively stained cells was quantified as a sum of positively stained either DCX or VEGF cells divided by the total number of DAPI positive cells expressed in percentage.
To study the therapeutic effect of estetrol, newborn rat pups were assigned to one of the following 6 groups at postnatal day 7: sham group (n=29), vehicle group (n=20), 1 mg/kg E4 group (n=16), 5 mg/kg E4 group (n=19), 10 mg/kg day E4 (n=17) and 50 mg/kg day E4 group (n=15). At postnatal day 7 animals were anesthetized with isoflurane (induction, 3.0%; maintenance, 1.5%), and the rat pups from vehicle and E4 groups passed through surgery encompassing left common carotid artery double ligation and cut. After surgery, the pups were returned to their dams and allowed to recover for 1 hour. The pups were then placed in a humidified hypoxic in vivo cabinet (CoyLab). Hypoxia was produced by the inhalation of 11%-8% of oxygen balanced by nitrogen at decreased concentration of oxygen for 20 minutes, followed by inhalation of 8% oxygen and 92% nitrogen at constant concentration for 35 minutes. All the manipulations were performed at 37° C.
Upon retrieval from the hypoxia chamber the rat pups were injected intraperitoneally either by vehicle (vehicle group) or by E4 (1 mg/kg, 5 mg/kg, 10 mg/kg or 50 mg/kg) in accordance to the group assignment. The animals from the sham group went through similar procedures but proceeded neither left common carotid artery ligation and cut followed by hypoxia nor vehicle or estetrol administration. Rat pups recovered with their dams until being sacrificed at postnatal day 14.

[2] = Ex.2 neonatal HIE rat model, pre-treatment: body weight; type: in vivo
Experimental: Sprague-Dawley pregnant rats were obtained from Janvier (France). After delivery newborn rat pups were housed with their dams and reared normally at room temperature (25° C.) under a 12-hour light-dark cycle. All experimental protocols were approved by the University of Liege Ethical Committee. All efforts were made to minimize animal suffering.
Estetrol (E4) was dissolved in saline solution at different concentrations and an equal volume (5 μl/g) of the solution was injected intraperitoneally into the pups from the E4 group(s). Rat pups from the Vehicle group were intraperitoneally injected a saline solution. Rat pups from the Sham group were not injected at all.
Ischemia was produced by surgery encompassing left common carotid artery double ligation and cut; hypoxia was produced by the inhalation of 11%-8% of oxygen balanced by nitrogen at decreased concentration of oxygen for 20 minutes, followed by inhalation of 8% oxygen and 92% nitrogen at constant concentration for 35 minutes.
After delivery, newborn rat pups were assigned to one of the following 4 groups: Sham group, Vehicle group, E4 5 mg/kg/per day group and E4 50 mg/kg/per day group. From day 4 to day 7 inclusive, rat pups were injected intraperitoneally either vehicle (Vehicle group) or E4 (5 mg/kg or 50 mg/kg in accordance to the group assignment) or not injected at all (Sham group). At day 7, 30 minutes after last injection, animals from Vehicle and E4 (5 mg/kg or 50 mg/kg) groups passed through surgery encompassing left common carotid artery double ligation and cut, followed by hypoxia produced by the inhalation of 11%-8% of oxygen balanced by nitrogen at decreased concentration for 20 minutes, followed by inhalation of 8% oxygen and 92% nitrogen at constant concentration for 35 minutes. The Sham group went through similar procedures without left common carotid artery ligation and hypoxia. All the manipulations were performed at 37° C. Rat pups recovered with their dams until being sacrificed at postnatal day 14. […]

C[C@]12CC[C@@H]3c4ccc(O)cc4CC[C@H]3[C@@H]1[C@@H](O)[C@@H](O)[C@@H]2O [E4, 1,3,5(10)-estratrien-3,15α,16α,17β-tetrol]
percentage of VEGF positively stained cells ([1]; 5 mg/kg E4 single ip dose after HI, CA1): 37.4±4.833% | percentage of VEGF positively stained cells ([1]; 10 mg/kg E4 single ip dose after HI, CA1): 37.1±3.84% | percentage of VEGF positively stained cells ([1]; 10 mg/kg E4 single ip dose after HI, cortex): 49.4±4.949% | percentage of VEGF positively stained cells ([1]; 50 mg/kg E4 single ip dose after HI, CA1): 45.1±4.753% | percentage of VEGF positively stained cells ([1]; E4 1, 5, 10, 50 mg/kg single ip dose after HI, CA2/CA3, between study groups): not significantly different between the study groups | VEGF staining ([1]; E4 1, 5, 10, 50 mg/kg single ip dose after HI, DG, among study groups): neither DCX nor VEGF staining was significantly different | body weight ([2]; E4 5 mg/kg ip day 4-7 before HI, day 8, vs Sham): sham operated group had significantly higher body weight | body weight ([2]; E4 5 mg/kg ip day 4-7 before HI, post-operative days 13 and 14, vs vehicle): significantly higher body weight than vehicle treated animals | body weight ([2]; E4 50 mg/kg ip day 4-7 before HI, day 10, vs Sham): sham operated group had significantly higher body weight

Source: patent publication US9808470B2, “Estrogenic components for use in the treatment of neurological disorders” (UNIVERSITE DE LIEGE, priority 2012, dated 2017)
